Source: US20260248775A1, “NEW INHIBITORS OF PHOSPHATIDYLINOSITOL 3-KINASE” (INSTITUT NATIONAL DE LA SANTÉ ET DE LA RECHERCHE MÉDICALE, priority 2022, published 2026)

How the values were obtained:
[1] = target: PI3K-α (PI3K p110a/p65a (h)) (Homo sapiens, UniProt P42336); assay: PI3K-inhibitory activity, enzymatic HTRF assay, PI3K-α; assay type: biochemical; conditions: 10 μM PIP2, 30 minutes at room temperature, read-out: Class IC50 PI3K-α
Description: (§1) Inhibitory activity of compounds against the Human PtdIns (4,5) P 3-kinase activity was quantified employing the enzymatic HTRF (Homogeneous Time Resolved Fluorescence) Assay.
(§2) PI3K p110a/[…] (h) is incubated in assay buffer containing 10 μM phosphatidylinositol 4,5-bisphosphate and Mg/ATP (concentration as required). The reaction is initiated by the addition of the ATP solution. After incubation for 30 minutes at room temperature, the reaction is stopped by the addition of stop solution containing EDTA and biotinylated phosphatidylinositol-3,4,5-trisphosphate. Finally, detection buffer is added, which contains europium-labelled anti-GST monoclonal antibody, GST-tagged GRP1 PH domain and streptavidin allophycocyanin. The plate is then read in time resolved fluorescence mode and the homogeneous time-resolved fluorescence (HTRF) signal is determined according to the formula HTRF=10000×(Em665 nm/Em620 nm)

PI3K-β = PI3K-β (Homo sapiens, UniProt P42338); assay: PI3K-inhibitory activity, enzymatic HTRF assay, PI3K-β; assay type: biochemical; conditions: read-out: Class IC50 PI3K-β
Description: [The procedure below names another target; the source lists this target under the same test.] as §1, §2

PI3K-γ = PI3K-γ (Homo sapiens, UniProt P48736); assay: PI3K-inhibitory activity, enzymatic HTRF assay, PI3K-γ; assay type: biochemical; conditions: read-out: Class IC50 PI3K-γ
Description: [The procedure below names another target; the source lists this target under the same test.] as §1, §2

PI3K-δ = PI3K-δ (Homo sapiens, UniProt O00329); assay: PI3K-inhibitory activity, enzymatic HTRF assay, PI3K-δ; assay type: biochemical; conditions: read-out: Class IC50 PI3K-δ
NZBWF1/J mice = assay: Kidney lesions in lupus model, uninephrectomized NZBWF1/J mice; assay type: in vivo, mouse; conditions: 50 mg/kg/day orally
Description: FIG. 1 (A to C) illustrates the ability of Compound 5 of the invention to improve kidney lesions in NZBWF1/J mouse model. A. Urinary albumin to creatinine ratio (Ualb/Cre) (Ordinate, mg/mmol). Abscissa (From left to right): Vehicle and Compound 5 (50 mg/kg). B. Blood urea nitrogen level (BUN) (Ordinate, mmol/L). Abscissa (From left to right): Vehicle and Compound 5 (50 mg/kg). C. Glomerular lesion score of kidneys 4 weeks after uninephrectomy followed by treatment with either the vehicle or Compound 5 (n=6 mice per group). AU: Arbitrary Unit (Ordinate). Abscissa (From left to right): Vehicle and Compound 5 (50 mg/kg).
NZBWF1/J mice gradually develop immune glomerulonephritis characterized by proteinuria and kidney dysfunction starting around 25 weeks of age. The uninephrectomy model was employed and uninephrectomy was performed on 12 female mice at 24 weeks of age.
As the incidence and severity of symptoms are more pronounced in females, only females were used in this study. The mice were then randomly assigned to receive either the vehicle (n=6) or Compound 5 50 mg/kg/day orally (n=6) for a duration of 4 weeks. At the end of the treatment period, the mice were sacrificed and their kidney histology was compared to samples obtained during the uninephrectomy procedure.

[2] = Blood glucose after repeated oral gavage in C57B16 mice; assay type: in vivo, mouse; conditions: 50 mg/kg oral gavage daily for 5 days, measured on day 6, C57B16 mice, vs vehicle
Description: C57B16 mice (n=6 mice per group, 3 males and 3 females) aged of 8 weeks old were daily treated by either vehicle or Compound 5 (50 mg/kg) during 5 consecutive days through oral gavage.
On day 6, blood glucose concentrations were measured at different time points before and after drug administration.

[3] = Blood insulin concentration after repeated oral gavage in C57B16 mice; assay type: in vivo, mouse; conditions: 50 mg/kg oral gavage daily for 5 days, plasma on day 6, male C57B16 mice, FIG. 2
Description: FIG. 2 illustrates the variation of insulin over time for the groups of mice treated either with a vehicle or with Compound 5 of the invention. Ordinate: insulin (ng/ml). Abscissa: time (hours).
C57B16 mice (n=3 mice per group, 3 males) aged of 8 weeks old were daily treated by either vehicle or Compound 5 (50 mg/kg) during 5 consecutive days through oral gavage. On day 6, insulin concentrations were measured at different time points before and after drug administration.
Insulin level was measured in plasma (7 μL in duplicate) using MSD u.plex (Mesoscale, ref 1526HK).

PI3K-γ, sequence (P48736 whole entry): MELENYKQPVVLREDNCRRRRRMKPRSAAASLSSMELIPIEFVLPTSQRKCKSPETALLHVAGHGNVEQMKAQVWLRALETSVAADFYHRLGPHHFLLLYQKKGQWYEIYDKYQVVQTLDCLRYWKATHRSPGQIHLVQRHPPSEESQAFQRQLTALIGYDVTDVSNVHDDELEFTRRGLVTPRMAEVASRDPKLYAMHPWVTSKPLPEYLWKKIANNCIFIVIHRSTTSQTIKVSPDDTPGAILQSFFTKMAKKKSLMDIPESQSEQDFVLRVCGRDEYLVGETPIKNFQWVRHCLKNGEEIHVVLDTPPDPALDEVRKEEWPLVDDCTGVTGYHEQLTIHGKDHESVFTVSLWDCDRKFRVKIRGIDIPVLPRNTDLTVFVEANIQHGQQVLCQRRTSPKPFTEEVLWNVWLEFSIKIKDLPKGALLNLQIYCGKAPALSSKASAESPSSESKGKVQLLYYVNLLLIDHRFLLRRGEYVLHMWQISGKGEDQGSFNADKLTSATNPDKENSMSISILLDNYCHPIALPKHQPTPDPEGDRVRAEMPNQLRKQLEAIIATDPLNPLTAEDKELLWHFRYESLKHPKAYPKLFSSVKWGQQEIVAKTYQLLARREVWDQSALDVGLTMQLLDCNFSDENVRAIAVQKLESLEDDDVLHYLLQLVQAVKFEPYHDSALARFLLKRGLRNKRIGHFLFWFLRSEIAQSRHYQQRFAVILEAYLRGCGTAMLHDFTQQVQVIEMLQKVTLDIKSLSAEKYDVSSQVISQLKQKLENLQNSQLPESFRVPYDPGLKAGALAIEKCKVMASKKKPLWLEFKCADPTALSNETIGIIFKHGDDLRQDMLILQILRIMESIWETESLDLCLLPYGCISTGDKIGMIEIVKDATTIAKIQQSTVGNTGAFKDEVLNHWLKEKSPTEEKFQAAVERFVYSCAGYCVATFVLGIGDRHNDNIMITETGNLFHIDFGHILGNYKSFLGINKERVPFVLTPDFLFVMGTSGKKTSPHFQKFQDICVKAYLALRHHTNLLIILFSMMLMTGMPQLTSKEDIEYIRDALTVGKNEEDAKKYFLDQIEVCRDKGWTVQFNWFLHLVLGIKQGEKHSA
PI3K-δ, sequence (O00329 whole entry): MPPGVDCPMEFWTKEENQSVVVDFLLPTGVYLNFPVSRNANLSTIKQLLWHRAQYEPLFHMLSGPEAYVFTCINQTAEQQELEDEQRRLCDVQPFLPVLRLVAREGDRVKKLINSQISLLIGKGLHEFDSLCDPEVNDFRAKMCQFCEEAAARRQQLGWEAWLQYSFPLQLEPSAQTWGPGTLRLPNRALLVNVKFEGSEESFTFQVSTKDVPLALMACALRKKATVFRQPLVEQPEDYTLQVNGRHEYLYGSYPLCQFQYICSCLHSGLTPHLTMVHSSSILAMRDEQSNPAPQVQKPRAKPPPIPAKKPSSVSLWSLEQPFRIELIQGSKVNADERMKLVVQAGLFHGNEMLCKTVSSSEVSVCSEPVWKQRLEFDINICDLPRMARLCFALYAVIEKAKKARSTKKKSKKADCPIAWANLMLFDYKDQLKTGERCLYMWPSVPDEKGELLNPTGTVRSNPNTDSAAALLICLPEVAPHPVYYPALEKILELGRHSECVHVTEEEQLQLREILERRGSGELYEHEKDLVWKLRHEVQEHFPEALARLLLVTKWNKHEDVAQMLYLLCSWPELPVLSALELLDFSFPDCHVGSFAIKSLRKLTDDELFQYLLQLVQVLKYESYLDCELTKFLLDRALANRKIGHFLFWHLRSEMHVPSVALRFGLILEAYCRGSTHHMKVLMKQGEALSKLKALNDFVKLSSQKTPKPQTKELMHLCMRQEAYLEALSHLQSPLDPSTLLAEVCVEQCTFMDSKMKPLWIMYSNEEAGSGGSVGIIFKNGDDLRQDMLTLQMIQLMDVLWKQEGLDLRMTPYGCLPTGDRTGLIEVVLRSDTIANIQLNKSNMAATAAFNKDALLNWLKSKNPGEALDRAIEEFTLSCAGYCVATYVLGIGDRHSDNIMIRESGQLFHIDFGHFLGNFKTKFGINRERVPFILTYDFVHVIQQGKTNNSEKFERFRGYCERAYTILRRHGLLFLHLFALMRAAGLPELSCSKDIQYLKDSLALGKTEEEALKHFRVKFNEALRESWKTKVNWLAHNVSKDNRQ
PI3K-δ, sequence (P27986 whole entry partner): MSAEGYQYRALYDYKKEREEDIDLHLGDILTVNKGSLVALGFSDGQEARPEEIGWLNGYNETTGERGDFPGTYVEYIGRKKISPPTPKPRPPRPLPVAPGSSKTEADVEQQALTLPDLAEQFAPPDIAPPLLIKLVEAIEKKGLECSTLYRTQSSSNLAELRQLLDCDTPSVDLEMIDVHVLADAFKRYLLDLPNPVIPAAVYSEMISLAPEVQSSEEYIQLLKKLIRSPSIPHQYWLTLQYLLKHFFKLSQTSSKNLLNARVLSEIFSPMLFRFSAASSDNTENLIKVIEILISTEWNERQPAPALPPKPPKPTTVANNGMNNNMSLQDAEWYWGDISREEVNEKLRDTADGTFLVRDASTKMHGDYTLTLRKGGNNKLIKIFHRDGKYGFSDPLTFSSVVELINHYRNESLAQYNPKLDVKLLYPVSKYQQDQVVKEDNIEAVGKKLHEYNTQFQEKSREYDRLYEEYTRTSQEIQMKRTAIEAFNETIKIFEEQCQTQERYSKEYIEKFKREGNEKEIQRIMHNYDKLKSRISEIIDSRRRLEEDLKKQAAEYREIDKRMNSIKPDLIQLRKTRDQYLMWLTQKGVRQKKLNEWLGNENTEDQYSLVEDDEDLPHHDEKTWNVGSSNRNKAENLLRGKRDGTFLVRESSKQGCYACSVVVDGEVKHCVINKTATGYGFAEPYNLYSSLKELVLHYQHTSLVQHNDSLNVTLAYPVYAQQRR
PI3K-β, sequence (P42338 whole entry): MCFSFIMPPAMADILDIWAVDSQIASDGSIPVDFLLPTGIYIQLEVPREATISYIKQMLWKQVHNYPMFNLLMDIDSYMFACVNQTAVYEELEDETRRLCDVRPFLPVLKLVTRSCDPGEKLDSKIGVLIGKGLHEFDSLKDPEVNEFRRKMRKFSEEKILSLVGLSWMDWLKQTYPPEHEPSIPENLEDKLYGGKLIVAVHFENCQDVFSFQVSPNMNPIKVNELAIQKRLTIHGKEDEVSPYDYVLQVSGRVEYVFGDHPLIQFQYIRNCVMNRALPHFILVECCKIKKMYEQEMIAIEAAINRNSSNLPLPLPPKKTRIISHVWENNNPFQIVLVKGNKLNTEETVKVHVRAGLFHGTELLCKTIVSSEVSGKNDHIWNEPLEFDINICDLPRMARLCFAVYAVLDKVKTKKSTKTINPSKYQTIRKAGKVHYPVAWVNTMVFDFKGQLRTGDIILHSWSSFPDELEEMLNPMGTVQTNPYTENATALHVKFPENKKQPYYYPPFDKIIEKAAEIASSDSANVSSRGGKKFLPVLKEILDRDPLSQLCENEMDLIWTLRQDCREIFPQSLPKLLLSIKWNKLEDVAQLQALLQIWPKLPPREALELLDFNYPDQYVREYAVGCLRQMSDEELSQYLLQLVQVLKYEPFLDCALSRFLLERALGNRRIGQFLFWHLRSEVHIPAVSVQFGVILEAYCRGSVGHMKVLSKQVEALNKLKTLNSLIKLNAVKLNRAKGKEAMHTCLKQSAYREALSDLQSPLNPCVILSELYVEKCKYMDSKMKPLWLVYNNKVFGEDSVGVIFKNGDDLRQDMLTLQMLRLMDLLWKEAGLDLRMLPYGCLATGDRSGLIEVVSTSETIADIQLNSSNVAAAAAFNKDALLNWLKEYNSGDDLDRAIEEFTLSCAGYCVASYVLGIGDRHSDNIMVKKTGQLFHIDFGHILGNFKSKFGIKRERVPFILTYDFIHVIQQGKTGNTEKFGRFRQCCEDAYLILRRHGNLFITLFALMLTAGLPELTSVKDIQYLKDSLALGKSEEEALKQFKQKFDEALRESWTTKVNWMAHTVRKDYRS
PI3K-β, sequence (P27986 whole entry partner): as the sequence (P27986 whole entry partner) above
PI3K-α (PI3K p110a/p65a (h)), sequence (P42336 whole entry): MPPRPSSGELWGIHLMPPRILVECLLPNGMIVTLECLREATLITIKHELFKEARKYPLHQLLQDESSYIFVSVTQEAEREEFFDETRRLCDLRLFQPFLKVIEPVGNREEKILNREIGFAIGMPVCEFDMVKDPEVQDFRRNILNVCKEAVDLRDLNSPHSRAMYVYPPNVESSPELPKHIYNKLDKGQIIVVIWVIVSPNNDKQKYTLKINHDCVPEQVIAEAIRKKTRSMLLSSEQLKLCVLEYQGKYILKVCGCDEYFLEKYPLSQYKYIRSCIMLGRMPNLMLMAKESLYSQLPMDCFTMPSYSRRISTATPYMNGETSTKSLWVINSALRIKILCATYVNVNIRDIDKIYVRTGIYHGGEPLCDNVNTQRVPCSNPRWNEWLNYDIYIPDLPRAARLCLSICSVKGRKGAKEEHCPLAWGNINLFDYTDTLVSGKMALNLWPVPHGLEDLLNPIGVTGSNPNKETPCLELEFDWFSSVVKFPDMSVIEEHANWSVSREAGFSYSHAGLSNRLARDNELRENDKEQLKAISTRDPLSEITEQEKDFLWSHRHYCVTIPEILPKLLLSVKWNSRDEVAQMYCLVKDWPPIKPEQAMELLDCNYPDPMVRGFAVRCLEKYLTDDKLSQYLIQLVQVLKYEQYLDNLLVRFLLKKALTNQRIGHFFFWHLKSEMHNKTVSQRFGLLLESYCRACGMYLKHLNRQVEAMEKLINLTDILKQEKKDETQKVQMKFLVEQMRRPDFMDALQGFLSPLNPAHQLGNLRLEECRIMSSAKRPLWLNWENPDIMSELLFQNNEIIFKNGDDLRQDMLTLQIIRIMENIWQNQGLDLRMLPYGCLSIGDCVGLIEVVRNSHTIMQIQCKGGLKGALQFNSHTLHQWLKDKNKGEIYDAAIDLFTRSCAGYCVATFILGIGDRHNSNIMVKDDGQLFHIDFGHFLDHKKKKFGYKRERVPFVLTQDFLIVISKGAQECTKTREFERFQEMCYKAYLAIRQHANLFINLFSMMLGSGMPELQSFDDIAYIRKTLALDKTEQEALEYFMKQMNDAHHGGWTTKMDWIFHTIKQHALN

SMILES | IC50 [1] | IC50 (PI3K-β) | IC50 (PI3K-γ) | IC50 (PI3K-δ) | glomerular lesions (glomerular lesion score) (NZBWF1/J mice; 4 weeks after uninephrectomy, histology, FIG. 1C) | kidney-to-body weight ratio (NZBWF1/J mice; 4 weeks, female uninephrectomized NZBWF1/J mice) | albuminuria (urinary albumin to creatinine ratio) (NZBWF1/J mice; 4 weeks, female uninephrectomized NZBWF1/J mice, vs vehicle, FIG. 1A) | blood urea nitrogen levels (NZBWF1/J mice; 4 weeks, female uninephrectomized NZBWF1/J mice, vs vehicle, FIG. 1B) | blood glucose [2] | blood insulin concentration [3]
Cc1nc(NC(=O)N2[C@H](C)CC[C@H]2C(N)=S)sc1-c1ccnc(C(C)(C)C(F)(F)F)c1 [Compound 9, (2S,5R)-2-carbamothioyl-5-methyl-N-(4-methyl-5-(2-(1,1,1-trifluoro-2-methylpropan-2-yl)pyridin-4-yl)thiazol-2-yl)pyrrolidine-1-carboxamide] | 200 to 500 nM | > 1000 nM | > 1000 nM | > 1000 nM |  |  |  |  |  | 
Cc1nc(NC(=O)N2C[C@H](O)C[C@H]2C(N)=S)sc1-c1ccnc(C(C)(C)C(F)(F)F)c1 [Compound 13, (2S,4R)-2-carbamothioyl-4-hydroxy-N-(4-methyl-5-(2-(1,1,1-trifluoro-2-methylpropan-2-yl)pyridin-4-yl)thiazol-2-yl)pyrrolidine-1-carboxamide] | ≤ 50 nM | > 1000 nM | 200 to 500 nM | 200 to 500 nM |  |  |  |  |  | 
Cc1nc(NC(=O)N2CC(F)(F)C[C@H]2C(N)=S)sc1-c1ccnc(C(C)(C)C(F)(F)F)c1 [Compound 1, (S)-2-carbamothioyl-4,4-difluoro-N-(4-methyl-5-(2-(1,1,1-trifluoro-2-methylpropan-2-yl)pyridin-4-yl)thiazol-2-yl)pyrrolidine-1-carboxamide] | 200 to 500 nM | > 1000 nM | > 1000 nM | 200 to 500 nM |  |  |  |  |  | 
CO[C@@H]1C[C@@H](C(N)=S)N(C(=O)Nc2nc(C)c(-c3ccnc(C(C)(C)C(F)(F)F)c3)s2)C1 [Compound 7, (2S,4R)-2-carbamothioyl-4-methoxy-N-(4-methyl-5-(2-(1,1,1-trifluoro-2-methylpropan-2-yl)pyridin-4-yl)thiazol-2-yl)pyrrolidine-1-carboxamide] | 50 to 200 nM | > 1000 nM | 200 to 500 nM | 500 to 1000 nM |  |  |  |  |  | 
Cc1nc(NC(=O)N2C[C@@H](C(F)(F)F)C[C@H]2C(N)=S)sc1-c1ccnc(C(C)(C)C(F)(F)F)c1 [Compound 12, (2S,4S)-2-carbamothioyl-N-(4-methyl-5-(2-(1,1,1-trifluoro-2-methylpropan-2-yl)pyridin-4-yl)thiazol-2-yl)-4-(trifluoromethyl)pyrrolidine-1-carboxamide] | 500 to 1000 nM | > 1000 nM | > 1000 nM | > 1000 nM |  |  |  |  |  | 
CO[C@H]1C[C@@H](C(N)=S)N(C(=O)Nc2nc(C)c(-c3ccnc(C(C)(C)C(F)(F)F)c3)s2)C1 [Compound 8, (2S,4S)-2-carbamothioyl-4-methoxy-N-(4-methyl-5-(2-(1,1,1-trifluoro-2-methylpropan-2-yl)pyridin-4-yl)thiazol-2-yl)pyrrolidine-1-carboxamide] | 50 to 200 nM | > 1000 nM | 200 to 500 nM | 500 to 1000 nM |  |  |  |  |  | 
Cc1nc(NC(=O)N2CCC[C@H]2C(N)=S)sc1-c1ccnc(C(C)(C)C(F)(F)F)c1 [Compound 5, (S)-2-carbamothioyl-N-(4-methyl-5-(2-(1,1,1-trifluoro-2-methylpropan-2-yl)pyridin-4-yl)thiazol-2-yl)pyrrolidine-1-carboxamide] | ≤ 50 nM | > 1000 nM | 200 to 500 nM | 200 to 500 nM | remained stable | notably decreased | significant reductions | significant reductions | modest increase | no increase
Cc1nc(NC(=O)N2CCC[C@@]2(C)C(N)=S)sc1-c1ccnc(C(C)(C)C(F)(F)F)c1 [Compound 6, (S)-2-carbamothioyl-2-methyl-N-(4-methyl-5-(2-(1,1,1-trifluoro-2-methylpropan-2-yl)pyridin-4-yl)thiazol-2-yl)pyrrolidine-1-carboxamide] | > 1000 nM | > 1000 nM | > 1000 nM | > 1000 nM |  |  |  |  |  | 
Cc1nc(NC(=O)N2C[C@H](F)C[C@H]2C(N)=S)sc1-c1ccnc(C(C)(C)C(F)(F)F)c1 [Compound 2, (2S,4R)-2-carbamothioyl-4-fluoro-N-(4-methyl-5-(2-(1,1,1-trifluoro-2-methylpropan-2-yl)pyridin-4-yl)thiazol-2-yl)pyrrolidine-1-carboxamide] | 50 to 200 nM | > 1000 nM | 200 to 500 nM | 200 to 500 nM |  |  |  |  |  | 
Cc1nc(NC(=O)N2CC3(C[C@H]2C(N)=S)CC3(F)F)sc1-c1ccnc(C(C)(C)C(F)(F)F)c1 (stereo partly drawn) [Compound 4, (S)-6-carbamothioyl-N-(4-methyl-5-(2-(1,1,1-trifluoro-2-methylpropan-2-yl)pyridin-4-yl)thiazol-2-yl)-1,1-difluoro-5-azaspiro[2,4]heptane-5-carboxamide] | > 1000 nM | > 1000 nM | > 1000 nM | > 1000 nM |  |  |  |  |  | 
Cc1nc(NC(=O)N2[C@@H](C)CC[C@H]2C(N)=S)sc1-c1ccnc(C(C)(C)C(F)(F)F)c1 [Compound 10, (2S,5S)-2-carbamothioyl-5-methyl-N-(4-methyl-5-(2-(1,1,1-trifluoro-2-methylpropan-2-yl)pyridin-4-yl)thiazol-2-yl)pyrrolidine-1-carboxamide] | > 1000 nM | > 1000 nM | > 1000 nM | > 1000 nM |  |  |  |  |  | 
Cc1nc(NC(=O)N2CC[C@H](O)[C@H]2C(N)=S)sc1-c1ccnc(C(C)(C)C(F)(F)F)c1 [Compound 14, (2S,3S)-2-carbamothioyl-3-hydroxy-N-(4-methyl-5-(2-(1,1,1-trifluoro-2-methylpropan-2-yl)pyridin-4-yl)thiazol-2-yl)pyrrolidine-1-carboxamide] | ≤ 50 nM | > 1000 nM | 200 to 500 nM | 200 to 500 nM |  |  |  |  |  | 
Cc1nc(NC(=O)N2C[C@@H](F)C[C@H]2C(N)=S)sc1-c1ccnc(C(C)(C)C(F)(F)F)c1 [Compound 3, (2S,4S)-2-carbamothioyl-4-fluoro-N-(4-methyl-5-(2-(1,1,1-trifluoro-2-methylpropan-2-yl)pyridin-4-yl)thiazol-2-yl)pyrrolidine-1-carboxamide] | 50 to 200 nM | > 1000 nM | 200 to 500 nM | > 1000 nM |  |  |  |  |  | 
